Experimental data: a melting point compilation (Tetko et al.; mined from patent text by program, amines drawn as free bases though some values may be those of a salt)

Row | melting point | Compound
1 | 277 to 278 °C | NNC(=O)[C@@H]1C[C@]2(NC(=O)NC2=O)c2cc(F)ccc2O1
2 | 104 to 109 °C | CC(C)C(C)C(=O)NC(C)(Cc1c[nH]c2ccccc12)C(=O)NCCc1ccccc1 (centres undefined)
3 | 70 to 73 °C | CCOC(=O)C(=O)Nc1sc(C(=O)OCC)c(CC)c1[N+](=O)[O-]
4 | 188 to 189 °C | COC(OC)C(=O)NC1CCN(C[C@@]23C[C@@H](c4ccccc42)c2ccc(Cl)cc23)CC1
5 | 236 to 238 °C | COc1cc(OC)c(C23CC4CC(CC(C4)C2)C3)cc1C(=O)Oc1ccc(C(=O)O)cc1
6 | 79 °C | ClCc1cc(-c2ccccc2)nc2ccccc12
7 | 211 to 213 °C | COc1ccc(C(=O)Nc2c(Cl)cncc2Cl)c2c1OC(C)C2C(=O)C1NCCc2ccccc21 (centres undefined)
8 | 146 to 150 °C | Cc1ccc(Cl)cc1-c1cccc2c1OC(CN)C2 (centres undefined)
9 | 91 to 92 °C | Nc1nc2c(ncn2C2CC(CO)C2CO)c(=O)[nH]1 (centres undefined)
10 | 73 to 75 °C | COc1ccc(CCc2cc(OC)c(OC)c(OC)c2)cc1
11 | 138 to 140 °C | O=C(Nc1ccccc1)n1nc(-c2ccccc2)cc1Sc1ccccc1
12 | 94.5 to 95.5 °C | CC(C)(C)C(Cl)=NNc1ccc([N+](=O)[O-])cc1
13 | 73 to 74.5 °C | CC(=O)SC(CC(=O)c1ccc(Cl)cc1Cl)C(=O)O (centres undefined)
14 | 226 to 230 °C | CC(=O)NC[C@H]1CN(c2ccc(N3CCC(C#N)(NNC(=O)c4cccs4)CC3)c(F)c2)C(=O)O1
15 | > 300 °C | O=c1[nH]c2cc(Cl)ccc2c(O)c1Sc1ccc(O)cc1
16 | 210 to 214 °C | O=C1C=C(c2c[nH]c3ccccc23)C(=O)O1
17 | 83 to 84 °C | CCOc1nn(-c2ccc(C(F)(F)F)cn2)cc1CCCOc1ccccc1CC(=O)O
18 | 82.5 to 83.5 °C | CC(=O)c1ccc(-c2ccc(F)cc2F)cc1
19 | 228 °C | Cc1ccc(-c2ccc(OC3SCC(O)C(O)C3O)cn2)cn1 (centres undefined)
20 | 98 to 100 °C | CCCOCCOc1ccc(-c2ccc3c(c2)C=C(C(=O)O)CCN3CCCOCC)cc1
21 | 239 to 241 °C | CCOC(=O)COc1ccc(SCc2ccnc3[nH]c(-c4ccc(C(F)(F)F)cc4)nc23)cc1C
22 | 136 °C | CCOC(=O)c1cn(CC)c2ncncc2c1=O
23 | 120 to 121 °C | CC(C)(C)c1ccc2c(c1)Cc1cc(C(C)(C)C)ccc1-2

Row | melting point | Compound
24 | 187 to 190 °C | O=[N+]([O-])c1ccc(CN2CCC(c3cc(-c4ccc(Cl)cc4)[nH]n3)CC2)cc1
25 | 191 to 192 °C | COCc1c[nH]c(-c2ccc(O)cc2)n1
26 | 251 to 253 °C | CC(=O)Nc1cc(C2=NNC(=O)NC2C)ccc1Cl (centres undefined)
27 | 128 to 129 °C | C#Cc1cnn2ccc(-c3ccc(Cl)cc3)nc12
28 | 68 to 70 °C | O=[N+]([O-])c1cccc(CBr)c1CBr
29 | 117 to 119 °C | CNC(=O)CCCc1cncc2ccc(OC)cc12
30 | 149 to 150 °C | COc1ccc(C(=O)N2c3ccccc3C(n3c4ccccc4c4ccccc43)CC2CCCCCN2CCC(c3cccc(C(F)(F)F)c3)CC2)cc1OC (centres undefined)
31 | 182 to 183 °C | CCCN(Cc1ccc(-c2ccccc2-c2nc(=O)o[nH]2)cc1)c1nn(C)cc1C(=O)OCC
32 | 159 °C | O=C(O)CCc1nc(-c2ccccc2)nc2ccccc12
33 | 168 to 170 °C | COC(=O)c1ccc(C(=O)c2cc3c(cc2OCc2ccc(C(C)(C)C)cc2)C(C)(C)CCC3(C)C)cc1
34 | 214 °C | Cn1ccnc1S(=O)(=O)C(C#N)=Cc1c(Cl)n(CC2CC2)c2ccccc12
35 | 276 to 277 °C | CC(C)(C)c1cc(CCC(=O)NNC(=O)C=Cc2ccc(Cl)cc2)cc(C(C)(C)C)c1O
36 | 160 to 162 °C | Cc1ccc(NC(=O)N2CCN(CCc3ccc(-c4cccc(N)n4)cc3)CC2)cc1
37 | 170 °C | Cc1cc(C)cc(N(CCCC(N)=O)Cc2ccc3nc(NCCCN4CCOCC4)n(Cc4ncccc4O)c3c2)c1
38 | 208 to 211 °C | CC(=O)OCC1Cc2c(C3=C(c4cn(C)c5ccccc45)C(=O)OC3=O)c3ccccc3n2C1 (centres undefined)
39 | 120 to 122 °C | COc1cc(COc2nn(CCO)cc2CO)ccc1OCc1nc(-c2ccco2)oc1C
40 | 186 to 188 °C | COc1ccc2c(c1OCc1ccccc1)CC(C(=O)O)N(C(=O)C(c1ccc(Cl)cc1)c1ccc(Cl)cc1)C2 (racemic)
41 | 156 to 158 °C | CC(=O)OCC1OC(OCC(=O)c2cc(OCc3ccccc3)c(OCc3ccccc3)c(OCc3ccccc3)c2)C(OC(C)=O)C(OC(C)=O)C1OC(C)=O (centres undefined)
42 | > 260 °C | O=C(Nc1nccs1)c1nc(-c2ccc(N3CCOCC3)cc2)[nH]c1-c1ccc(Cl)cc1
43 | 124 to 126 °C | Cn1nc(-c2c(F)cccc2Cl)nc1-c1ccc(CBr)c(Cl)c1
44 | 176 to 177 °C | C=CCn1c(=O)c2cnc(Nc3ccc(N4CCN(C)CC4)cc3)nc2n(C(C)C)c1=O
45 | 80 to 81.5 °C | C#Cc1cc(Cl)cc(Cl)c1
46 | 210 to 213 °C | Cn1ccc(=O)c(O)c1C(O)c1ccccc1 (centres undefined)

Row | melting point | Compound
47 | 148 °C | C=CCC(c1ccc(C(O)(C(F)(F)F)C(F)(F)F)cc1)S(=O)(=O)c1ccccc1 (centres undefined)
48 | 78 to 80 °C | CC/C(=C(\c1ccc(I)cc1)c1ccc(OCCCCCBr)cc1)c1ccccc1
49 | 115 to 118 °C | Cc1cccc(C)c1N(C(C)C(=O)NN)S(C)(=O)=O (centres undefined)
50 | 224 °C | Cc1ccc(S(=O)(=O)N2CCN(S(=O)(=O)c3ccc(C)cc3)CC(=O)NCC(C3CCCCC3)NC(=O)CN(S(=O)(=O)c3ccc(C)cc3)CC2)cc1 (centres undefined)
51 | 141 °C | COC(=O)CN(C)c1cc(-c2ccc(Cl)cc2)on1
52 | 192 to 193 °C | CCC(=O)Nc1cc(-c2c(-c3cccc(Cl)c3)nc3cccnn23)ccn1
53 | 132 °C | COC1=C(c2cccc(C(F)(F)F)c2)C(CCC(=O)O)OC1=O (centres undefined)
54 | 228 to 231 °C | COc1cc2c(c(OC(C)=O)c1)C1CCC3(C)C(=O)C(O)CC3C1CC2 (centres undefined)
55 | 188 °C | CCCCc1nc(=O)n2ncc(Br)c2[nH]1
56 | 64 to 67 °C | CC(C)(C=C=CC(=O)O)c1ccc(Cl)cc1
57 | 185 to 187 °C | CN1C2CCCC1CC(NC(=O)c1cccc3oc(-c4ccc(Cl)cc4)nc13)C2 (centres undefined)
58 | 180 to 181 °C | Cc1c(C(=O)N[C@H](C)[C@](O)(Cn2cncn2)c2ccc(F)cc2F)cnn1-c1ccc(C(F)(F)F)cc1
59 | 94 to 95 °C | CS(=O)(=O)c1ccc(-c2cc(CCCO)nn2CC2CCCCC2)cc1
60 | 66 °C | C=CS(=O)(=O)c1ccc(C)cc1
61 | 204 to 207 °C | O=C1Cc2cc(Cl)cc(Oc3ccccc3F)c2N1
62 | 124 to 125 °C | N#Cc1cccc(C=Cc2ccc(Cl)c(Cl)c2)n1
63 | 160 to 162 °C | O=C1N[C@@H](SC(c2ccccc2)(c2ccccc2)c2ccccc2)[C@@H]1CO (relative stereo)
64 | 64 to 65 °C | N#CC=Cc1ccc(F)cc1
65 | 159 °C | O=[N+]([O-])c1cccc(NC(=S)NCc2cccnc2)c1
66 | 122 to 123 °C | COc1ccccc1C(C)(O)c1ccccc1OC
67 | 270 to 274 °C | c1ccc(Nc2nc(-c3ccncc3)nc3ccccc23)cc1
68 | 264 to 266 °C | COc1ccc(-c2csc(Nc3cccc(C)n3)n2)cc1OC

Row | Compound | melting point
69 | COc1cc2cc(C(=O)N3CC(COS(C)(=O)=O)c4c3cc(N)c3ccccc43)[nH]c2c(OC)c1OC (centres undefined) | > 260 °C
